Structures can show the parent of a compound that is named as a salt. Where two headings read alike, the source gives them in different places.
Experiments:
[1] = biological target: T1, opioid receptor (Mus musculus, UniProt P42866); assay: in vivo; parameters: species or system CF-1 male mice; settings: sc
T1 construct: Five CF-1 male mice (Charles River, Portage, MI); from tissue; host or cells: living CF-1 male mice (whole animal, endogenous receptor)

[2] = biological target: T2, mu receptor (Rattus norvegicus, UniProt P33535); assay: Naloxone [3H] opioid receptor binding assay (mu receptor); parameters: species or system rat (male Sprague Dawley); settings: 20 min; for Ki: rat whole brain minus cerebellum, pH 7.4, 37° C., read-out: Ki
T2 construct: The brain tissue, rat whole brain minus cerebellum for mu was homogenized; from tissue; host or cells: brain minus cerebellum of male Sprague Dawley rats, homogenate fraction

[3] = system: peripheral opioid receptors; assay: mouse diarrhea test: precipitated diarrhea in morphine-maintained mice (peripheral opioid activity); format: in vivo
[4] = mouse writhing test, […], s.c. 20 min before acetic acid, read-out: AD50 (the source's name)
[5] = pH 7.4, read-out: % displacement at 10 nM
[6] = pH 7.4, read-out: % displacement at 100 nM
[7] = AD50 mouse writhing / ED50 mouse diarrhea, higher = greater relative peripheral antagonism
[8] = mouse writhing test, dose of antagonist that reduced inhibition of writhing by 1.25 mg/kg morphine sulfate to 50%, s.c. 20 min before acetic acid, read-out: AD50 (the source's name)
[9] = pH 7.4, 100 nM test compound, [3H]naloxone 0.5 nM, […], read-out: % displacement at 100 nM

T2 sequence (P33535 whole entry): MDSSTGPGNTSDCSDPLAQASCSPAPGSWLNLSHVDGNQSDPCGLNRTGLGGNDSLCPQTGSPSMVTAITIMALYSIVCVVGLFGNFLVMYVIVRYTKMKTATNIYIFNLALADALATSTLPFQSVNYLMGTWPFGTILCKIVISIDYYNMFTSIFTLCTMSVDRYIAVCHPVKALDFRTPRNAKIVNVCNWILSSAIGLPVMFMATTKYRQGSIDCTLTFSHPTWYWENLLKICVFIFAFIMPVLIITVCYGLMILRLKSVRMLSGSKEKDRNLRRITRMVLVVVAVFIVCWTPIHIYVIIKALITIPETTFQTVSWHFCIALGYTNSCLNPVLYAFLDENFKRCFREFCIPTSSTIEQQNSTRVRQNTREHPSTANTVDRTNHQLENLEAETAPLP
T1 sequence (P42866 whole entry): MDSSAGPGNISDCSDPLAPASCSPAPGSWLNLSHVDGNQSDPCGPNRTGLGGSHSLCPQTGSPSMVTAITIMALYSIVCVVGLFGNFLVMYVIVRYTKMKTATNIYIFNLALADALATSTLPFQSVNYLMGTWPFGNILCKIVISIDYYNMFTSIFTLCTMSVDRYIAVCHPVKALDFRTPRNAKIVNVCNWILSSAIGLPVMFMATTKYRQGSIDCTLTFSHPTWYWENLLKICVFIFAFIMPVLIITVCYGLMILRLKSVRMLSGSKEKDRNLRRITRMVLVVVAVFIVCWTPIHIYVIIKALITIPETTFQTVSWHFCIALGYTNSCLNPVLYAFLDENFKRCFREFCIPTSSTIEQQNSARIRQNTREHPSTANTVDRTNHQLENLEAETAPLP

C[C@H]1CN(CC(Cc2ccccc2)NC(=O)CCC(=O)O)CC[C@@]1(C)c1cccc(O)c1 (stereo partly drawn) [Example 14]
ED50 [1, 4]: 21 mg/kg
inhibition at 0.01 µM [2, 5]: 20%
inhibition at 0.1 µM [2, 6]: 64%
Ki ([2]; […], [3H]naloxone 0.5 nM): 32.4 nM
Ratio (ratio of AD50 to ED50) [3, 7]: 656

C[C@H]1CN(C[C@H](CC2CCCCC2)NC(=O)CCCC(=O)OCC(=O)N(C)C)CC[C@@]1(C)c1cccc(O)c1 [Example 64]
ED50 [1, 4]: 13.5 mg/kg
inhibition at 0.01 µM [2, 5]: 81%
inhibition at 0.1 µM [2, 6]: 94%
Ki ([2]; […], [3H]naloxone 0.5 nM): 1.51 nM

C[C@H]1CN(CCC(NC(=O)CCCC(=O)O)C2CCCCC2)CC[C@@]1(C)c1cccc(O)c1 (stereo in doubt) [Example 5, 5-((3-(trans-4-(3-hydroxyphenyl)-3,4-dimethyl-1-piperidinyl)-1-cyclohexylpropyl)amino)-5-oxo-pentanoic acid monohydrochloride monohydrate]
ED50 [1, 4]: > 20 mg/kg
inhibition at 0.01 µM [2, 5]: 100%
inhibition at 0.1 µM [2, 6]: 100%
Ki ([2]; […], [3H]naloxone 0.5 nM): 0.3 nM
Ratio (ratio of AD50 to ED50) [3, 7]: > 1666

C[C@H]1CN(CCN(C(=O)CCCC(=O)O)c2ccccc2)CC[C@@]1(C)c1cccc(O)c1 (relative stereo) [Example 20, Trans-5-(phenyl-(2-(4-(3-hydroxyphenyl)-3,4-dimethyl-1-piperidinyl)ethyl)amino)-5-oxopentanoic acid monohydrate]
ED50 ([1]; mouse, read-out: AD50): 2.1 mg/kg
inhibition at 0.01 µM [2, 5]: 95%
inhibition at 0.1 µM [2, 6]: 99%
Ratio (ratio of AD50 to ED50) ([3]; mouse, in vivo): 35

C[C@H]1CN(CCCN(CC2CCCCC2)C(=O)CCCC(=O)O)CC[C@@]1(C)c1cccc(O)c1 (relative stereo) [Example 27, Trans-5-(cyclohexylmethyl(3-(4-(3-hydroxyphenyl)-3,4-dimethyl-1-piperidinyl)propyl)amino)-5-oxopentanoic acid monohydrate]
ED50 [1, 4]: 11 mg/kg
inhibition at 0.01 µM [2, 5]: 63%
inhibition at 0.1 µM [2, 6]: 93%
Ki ([2]; […], [3H]naloxone 0.5 nM): 8 nM
Ratio (ratio of AD50 to ED50) [3, 7]: 61

CCOC(=O)CCCC(=O)NC(CCN1CC[C@@](C)(c2cccc(O)c2)[C@@H](C)C1)CC(C)C (single isomer, unassigned) [Example 3A, 5-((1-(2-(trans-4-(3-hydroxyphenyl)-3,4-dimethyl-1-piperidinyl)ethyl)-3-methylbutyl)amino)-5-oxopentanoic acid ethyl ester monohydrochloride]
ED50 [1, 4]: 14.2 mg/kg
inhibition at 0.01 µM [2, 5]: 100%
inhibition at 0.1 µM [2, 6]: 100%
Ki ([2]; […], [3H]naloxone 0.5 nM): 0.3 nM
Ratio (ratio of AD50 to ED50) [3, 7]: 89

C[C@H]1CN(CCN(C(=O)CCC(N)=O)C2CCCCC2)CC[C@@]1(C)c1cccc(O)c1 (relative stereo) [Example 35, N-Cyclohexyl-N-(2-(trans-4-(3-hydroxyphenyl)-3,4-dimethyl-1-piperidinyl)ethyl)butanediamide monohydrochloride]
ED50 [1, 8]: > 1.25 mg/kg
inhibition at 0.01 µM [2, 5]: 80%
inhibition at 0.1 µM [2, 6]: 99%
Ki ([2]; […], [3H]naloxone 0.5 nM): 2.15 nM
Ratio (ratio of AD50 to ED50) [3, 7]: > 3

C[C@H]1CN(CCCN(C(=O)CCCC(=O)O)C2CCCCC2)CC[C@@]1(C)c1cccc(O)c1 (relative stereo) [Example 25, 5-(cyclohexyl-(3-(trans-4-(3-hydroxyphenyl)-3,4-dimethyl-1-piperidinyl)propyl)amino)-5-oxopentanoic acid]
ED50 [1, 4]: 0.61 mg/kg
inhibition at 0.01 µM [2, 5]: 77%
inhibition at 0.1 µM [2, 6]: 93%
Ki ([2]; […], [3H]naloxone 0.5 nM): 1.18 nM
Ratio (ratio of AD50 to ED50) [3, 7]: 10

C[C@H]1CN(CCCN(C(=O)CCCC(N)=O)C2CCCCC2)CC[C@@]1(C)c1cccc(O)c1 (relative stereo) [Example 37, N-(3-(trans-4-(3-hydroxyphenyl)-3,4-dimethyl-1-piperidinyl)propyl)-N-cyclohexylpentanediamide monohydrochloride monohydrate]
ED50 [1, 4]: 12.8 mg/kg
inhibition at 0.01 µM [2, 5]: 88%
inhibition at 0.1 µM [2, 6]: 100%
Ki ([2]; […], [3H]naloxone 0.5 nM): 0.61 nM
Ratio (ratio of AD50 to ED50) [3, 7]: 256

CC(=O)NC(CCN1CC[C@@](C)(c2cccc(O)c2)[C@@H](C)C1)c1ccccc1 (stereo in doubt) [Example 6, N-(3-(trans-4-(3-hydroxyphenyl)-3,4-dimethyl-1-piperidinyl)-1-phenylpropyl)acetamide]
ED50 [1, 4]: 30 mg/kg
inhibition at 0.01 µM [2, 5]: 82%
inhibition at 0.1 µM [2, 6]: 94%
Ki ([2]; […], [3H]naloxone 0.5 nM): 6.49 nM
Ratio (ratio of AD50 to ED50) [3, 7]: 428

C[C@H]1CN(CCC(CC2CCCCC2)NC(=O)CCCC(=O)O)CC[C@@]1(C)c1cccc(O)c1 (stereo in doubt) [Example 7, 5-((1-(cyclohexylmethyl)-3-(trans-4-(3-hydroxyphenyl)-3,4-dimethyl-1-piperidinyl)propyl)amino)-5-oxopentanoic acid monohydrochloride monohydrate]
ED50 [1, 4]: 8.62 mg/kg
inhibition at 0.01 µM [2, 5]: 99%
inhibition at 0.1 µM [2, 6]: 100%
Ki ([2]; […], [3H]naloxone 0.5 nM): 0.63 nM
Ratio (ratio of AD50 to ED50) [3, 7]: 19

CNC(=O)CNC(=O)CC(=O)N(CCN1CC[C@@](C)(c2cccc(O)c2)[C@@H](C)C1)C1CCCCC1 (relative stereo) [Example 38, N-cyclohexyl-N-(2-(trans-4-(3-hydroxyphenyl)-3,4-dimethyl-1-piperidinyl)ethyl)-N'-(2-(methylamino)-2-oxoethyl)propanediamide monohydrochloride]
ED50 [1, 4]: 28.9 mg/kg
inhibition at 0.01 µM [2, 5]: 79%
inhibition at 0.1 µM [2, 9]: 98%
Ki ([2]; […], [3H]naloxone 0.5 nM): 2.98 nM
Ratio (ratio of AD50 to ED50) [3, 7]: 1605

CC(C)CC(=O)NCCCC(=O)N(CCN1CC[C@@](C)(c2cccc(O)c2)[C@@H](C)C1)C1CCCCC1 (relative stereo) [Example 40, hydrochloride]
ED50 [1, 4]: 2.2 mg/kg
inhibition at 0.01 µM [2, 5]: 87%
inhibition at 0.1 µM [2, 6]: 100%
Ki ([2]; […], [3H]naloxone 0.5 nM): 1.16 nM
Ratio (ratio of AD50 to ED50) ([3]; mouse, in vivo): 3

CC(C)OC(=O)CCC(=O)N(CCN1CC[C@@](C)(c2cccc(O)c2)[C@@H](C)C1)C1CCCCC1 (relative stereo) [Example 30, 4-(Cyclohexyl-(2-(trans-4-(3-hydroxyphenyl)-3,4-dimethyl-1-piperidinyl)ethyl)amino)-4-oxobutanoic acid 1-methyl-ethyl ester]
ED50 [1, 4]: 12.4 mg/kg
inhibition at 0.01 µM [2, 5]: 79%
inhibition at 0.1 µM [2, 6]: 96%
Ki ([2]; […], [3H]naloxone 0.5 nM): 11 nM
Ratio (ratio of AD50 to ED50) [3, 7]: > 40

CC(=O)OC(C)OC(=O)CCCC(=O)N[C@@H](CC1CCCCC1)CN1CC[C@@](C)(c2cccc(O)c2)[C@@H](C)C1 (stereo partly drawn) [Example 67]
ED50 [1, 4]: > 40 mg/kg
inhibition at 0.01 µM ([2]; pH 7.4, 10 nM test compound, [3H]naloxone 0.5 nM, mu receptor, read-out: % displacement at 10 nM): 73%
inhibition at 0.1 µM ([2]; pH 7.4, 100 nM test compound, [3H]naloxone 0.5 nM, mu receptor, read-out: % displacement at 100 nM): 95%

CCOC(=O)CCCC(=O)N(CCCN1CC[C@@](C)(c2cccc(O)c2)[C@@H](C)C1)C1CCCCC1 (relative stereo) [Example 33, 5-(Cyclohexyl-(3-(trans-4-(3-hydroxyphenyl)-3,4-dimethyl-1-piperidinyl)propyl)amino)-5-oxopentanoic acid ethyl ester monohydrochloride]
ED50 [1, 4]: 3.67 mg/kg
inhibition at 0.1 µM [2, 6]: 99%
inhibition at 0.01 µM ([2]; pH 7.4, 10 nM test compound, [3H]naloxone 0.5 nM, […], read-out: % displacement at 10 nM): 83%
Ki ([2]; […], [3H]naloxone 0.5 nM): 0.26 nM
Ratio (ratio of AD50 to ED50) [3, 7]: 122

COC(=O)[C@H](Cc1ccccc1)NC(=O)CCC(=O)N(CCN1CCC(C)(c2cccc(O)c2)C(C)C1)C1CCCCC1 (stereo partly drawn) [Example 41, 2-((1,4-dioxo-4-(cyclohexyl-(2-(trans-4-(3-hydroxyphenyl)-3,4-dimethyl-1-piperidinyl)ethyl)amino)butyl)-amino)-3-phenylpropanoic acid, methyl ester]
ED50 [1, 4]: 32 mg/kg
inhibition at 0.01 µM [2, 5]: 87%
inhibition at 0.1 µM [2, 6]: 99%
Ki ([2]; […], [3H]naloxone 0.5 nM): 2.45 nM
Ratio (ratio of AD50 to ED50) [3, 7]: 74

C[C@H]1CN(CCN(C(=O)CCC(=O)O)C2CCCCC2)CC[C@@]1(C)c1cccc(O)c1 (relative stereo) [Example 22, 4-(Cyclohexyl-(2-(trans-4-(3-hydroxyphenyl)-3,4-dimethyl-1-piperidinyl)ethyl)amino)-4-oxobutanoic acid monohydrate]
ED50 [1, 8]: 1.25 mg/kg
inhibition at 0.01 µM [2, 5]: 51%
inhibition at 0.1 µM [2, 6]: 93%
Ki ([2]; […], [3H]naloxone 0.5 nM): 3.59 nM
Ratio (ratio of AD50 to ED50) [3, 7]: 63

CCCOC(=O)CCC(=O)N(CCN1CC[C@@](C)(c2cccc(O)c2)[C@@H](C)C1)C1CCCCC1 (relative stereo) [Example 31, 4-(Cyclohexyl-(2-(trans-4-(3-hydroxyphenyl)-3,4-dimethyl-1-piperidinyl)ethyl)amino)-4-oxobutanoic acid propyl ester]
ED50 [1, 4]: > 40 mg/kg
inhibition at 0.01 µM [2, 5]: 82%
inhibition at 0.1 µM [2, 9]: 97%
Ki ([2]; […], [3H]naloxone 0.5 nM): 2.52 nM
Ratio (ratio of AD50 to ED50) [3, 7]: > 200

CCOC(=O)CCCC(=O)N[C@@H](CC1CCCCC1)CN1CC[C@](C)(c2cccc(O)c2)[C@H](C)C1 [Example 51]
ED50 [1, 4]: > 40 mg/kg
inhibition at 0.01 µM [2, 5]: 73%
inhibition at 0.1 µM [2, 6]: 97%

C[C@H]1CN(CCN(C(=O)CCCC(=O)O)C2CCCCC2)CC[C@@]1(C)c1cccc(O)c1 (relative stereo) [Example 23, 5-(Cyclohexyl-(2-(trans-4-(3-hydroxyphenyl)-3,4-dimethyl-1-piperidinyl)ethyl)amino)-5-oxopentanoic acid monohydrate]
ED50 [1, 8]: > 1.25 mg/kg
inhibition at 0.01 µM [2, 5]: 77%
inhibition at 0.1 µM [2, 6]: 100%
Ki ([2]; […], [3H]naloxone 0.5 nM): 4.38 nM
Ratio (ratio of AD50 to ED50) [3, 7]: > 5
